In one data set the target is T1, tubulin (Bos taurus, UniProt P81947+Q6B856).
T1 construct: Tubulin devoid of microtubule-associated proteins (MAPs) was purified from bovine brain; from tissue; host or cells: bovine brain
Put plainly: Tubulin binding assay (quenching of intrinsic tryptophan fluorescence). To be noted: for Kd: 2 µM tubulin, PEM buffer pH 6.8, 37 °C, 45 min, mean ± S.D.; for Experimental ΔGbind: calculated from KD, ΔGbind = RT ln KD, T = 298 K. Details: species or system bovine. As to the method:
Tubulin devoid of microtubule-associated proteins (MAPs) was purified from bovine brain by cycles of temperature-dependent polymerization and depolymerization as described previously followed by phosphocellulose chromatography. The concentration of the tubulin was determined by the method of Bradford using BSA as the standard. Purified tubulin was quickly frozen as drops in liquid nitrogen and stored at - 80 °C until used.
Noscapinoids quench the […] intrinsic tryptophan fluorescence of tubulin in a concentration-dependent fashion as described previously. This has allowed an easy method for measuring the tubulin-noscapinoids interactions. Briefly, the compounds 5a, 6a-j (0-200 µM) were incubated with 2 µM tubulin in PEM buffer (100 mM PIPES, pH 6.8, 3 mM MgSO4, and 1 mM EGTA) at 37 °C for 45 min. After incubation, the samples were excited at 295 nm. The relative intrinsic fluorescence intensity of the tubulin was then monitored in the absence and presence of the compound 5a, 6a-j using a Varian Cary Eclipse Fluorescence Spectrophotometer (Agilent Technologies, CA, USA). The emission readings were recorded at 335 nm. We used a 0.3 cm path-length cuvette to minimize the inner filter effects caused by the absorbance of the noscapinoids. In addition, the inner filter effects were corrected using a formula F corrected = F observed·antilog [(A ex + A em)/2], where A ex is the absorbance at the excitation wavelength and A em is the absorbance at the emission wavelength. The equilibrium dissociation constant (KD) was determined by the formula: 1/a = KD/[free ligand] + 1, where a is the fractional occupancy and [free ligand] is the concentration of free ligand. The fractional occupancy (a) was determined by the formula a = ΔF/ΔF max, where ΔF is the change in fluorescence intensity when tubulin and its ligand are in equilibrium and ΔF max is the value of maximum fluorescence change when tubulin is completely bound with its ligand. ΔF max was calculated by plotting 1/ΔF versus 1/ligand, using total ligand concentration as the first estimate of free ligand concentration. Three independent experiments were performed for each noscapinoid.

For data set [1], the system named is human lymphoblast cell line (CEM). Put plainly: In vitro cell proliferation assay (SRB), CEM. Format: cell-based. Particulars: 72 h, mean ± S.D. As to the method:
(§1) The cell proliferation assay was performed in 96-well plates as described previously. A panel of four cancer cell lines of different tissues of origins, namely: human lung adenocarcinoma epithelial cell line (A549), human lymphoblast cell line (CEM), human cervix cell line (HeLa) and human breast epithelial cell line (MCF-7) were studied. These cell lines were obtained from the National Repository of Animal Cell Culture, National Centre for Cell Sciences, Pune (NCCS), India. Briefly, 2 x10^3 cells were seeded in each well and were incubated with gradient concentrations of 5a, 6a-j compounds for 72 h. The cells were then fixed with 50% trichloroacetic acid and stained with 0.4% sulforhodamine B (SRB) dissolved in 1% acetic acid. Cells were then washed with1% acetic acid to remove excess (unbound) SRB. The protein-bound SRB was dissolved with 10 mM Tris base and the absorbance at 564 nm was determined using a SPECTRAmax PLUS 384 microplate spectrophotometer.

Data set [2] deals with human cervix cell line (HeLa). The data set can be described thus: In vitro cell proliferation assay (SRB), HeLa. Format: cell-based. To be noted: 72 h, mean ± S.D. As to the method: as §1
Data set [3] relates to human lung adenocarcinoma epithelial cell line (A549). Put plainly: In vitro cell proliferation assay (SRB), A549. Format: cell-based. Particulars: 72 h, mean ± S.D. As to the method:
as §1

Data set [4] relates to human breast epithelial cell line (MCF-7). Put plainly: In vitro cell proliferation assay (SRB), MCF-7. To be noted: MCF7, 72 h, mean ± S.D. Format: cell-based. Here is the method:
as §1

A further data set deals with MCF-7 cells. Put plainly: Cell cycle analysis by flow cytometry (propidium iodide). Format: cell-based, human. To be noted: MCF-7, 25 µM. As to the method: The flow cytometric evaluation of the cell cycle status was performed as described previously. Briefly, cells (2 x 10^6) treated with the noscapinoids up to 72 h were centrifuged, washed twice with cold PBS, and fixed in 70% ethanol. Tubes containing the cell pellets were stored at 4 °C for minimum of 24 h. Cells were then centrifuged at 1000 x g for 10 min and the supernatant was discarded. The pellets were washed twice with 5 ml of PBS and then stained with 0.5 ml of propidium iodide (0.1% of Pl + 0.6% Triton-X in PBS) and 0.5 ml of RNase A (2 mg/ml) for 45 minutes in dark. Samples were then analyzed on a FACS Calibur flow cytometer ([…]).

T1 sequence (Q6B856 whole entry): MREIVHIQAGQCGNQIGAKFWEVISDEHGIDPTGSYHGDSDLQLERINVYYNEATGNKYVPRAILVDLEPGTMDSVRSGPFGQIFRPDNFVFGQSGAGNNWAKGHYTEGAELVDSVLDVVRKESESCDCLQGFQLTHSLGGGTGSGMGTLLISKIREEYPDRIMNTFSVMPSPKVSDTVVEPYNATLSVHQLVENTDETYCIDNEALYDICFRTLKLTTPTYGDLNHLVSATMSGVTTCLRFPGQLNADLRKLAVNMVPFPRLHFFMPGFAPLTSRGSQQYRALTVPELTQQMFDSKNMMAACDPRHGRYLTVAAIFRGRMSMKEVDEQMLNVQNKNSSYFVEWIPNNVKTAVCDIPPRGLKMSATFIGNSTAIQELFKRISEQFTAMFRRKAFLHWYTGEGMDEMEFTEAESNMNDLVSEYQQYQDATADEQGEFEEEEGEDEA
T1 sequence (P81947 whole entry): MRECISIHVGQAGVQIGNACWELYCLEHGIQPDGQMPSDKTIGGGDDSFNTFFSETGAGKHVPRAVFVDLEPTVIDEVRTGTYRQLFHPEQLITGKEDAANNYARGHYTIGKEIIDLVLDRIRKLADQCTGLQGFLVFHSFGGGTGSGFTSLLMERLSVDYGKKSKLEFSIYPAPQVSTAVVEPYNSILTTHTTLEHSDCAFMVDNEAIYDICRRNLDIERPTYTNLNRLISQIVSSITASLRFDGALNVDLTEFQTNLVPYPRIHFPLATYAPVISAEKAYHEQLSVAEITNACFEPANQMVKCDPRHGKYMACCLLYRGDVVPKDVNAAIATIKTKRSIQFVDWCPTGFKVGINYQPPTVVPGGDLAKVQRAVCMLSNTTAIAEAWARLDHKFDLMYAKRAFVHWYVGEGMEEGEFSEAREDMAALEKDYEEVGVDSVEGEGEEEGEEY

In turn, `CCOC(=O)CN1CCc2cc3c(c(OC)c2[C@@H]1[C@H]1OC(=O)c2c1ccc(OC)c2OC)OCO3` [Compound 6j, Ethyl 2-((R)-5-((S)-4,5-dimethoxy-3-oxo-1,3-dihydroisobenzofuran-1-yl)-4-methoxy-7,8-dihydro-[1,3]dioxolo[4,5-g]isoquinolin-6(5H)-yl)acetate] came in with a melting point of 92 °C. Also, on tubulin, the Kd came to 228 ± 10 µM and the “Experimental ΔGbind” value is on record as -4.973 kcal/mol. In data set [1], this molecule came in with a 50% inhibitory concentration (IC50) of 13.6 ± 1.3 µM. Besides, the IC50 in data set [2] came out at 32.4 ± 2.4 µM. For the same molecule, in data set [3], half-maximal inhibition (IC50) required 72.3 ± 3.5 µM. The molecule also showed an IC50 in data set [4] of 52.6 ± 3.8 µM. In addition, in the data set with MCF-7 cells, the “Cell cycle parameters % G0/G1, 24 hours” value is 25.71%; the “Cell cycle parameters % G2/M, 24 hours” value amounted to 66.17%; the “Cell cycle parameters % S, 24 hours” value is recorded as 3.09%; the “Cell cycle parameters % Sub-G1, 24 hours” value is 8.29%. In the data set with MCF-7 cells, the “Cell cycle parameters % G0/G1, 72 hours” value came out at 22.16%; the “Cell cycle parameters % G2/M, 72 hours” value is listed as 39.48%; the “Cell cycle parameters % S, 72 hours” value is 8.63%; the “Cell cycle parameters % Sub-G1, 72 hours” value turned out to be 27.24%.
The molecule `COc1ccc2c(c1OC)C(=O)O[C@@H]2[C@H]1c2c(cc3c(c2OC)OCO3)CCN1Cc1ccc([N+](=O)[O-])cc1` [Compound 6c, (S)-6,7-dimethoxy-3-((R)-4-methoxy-6-(4-nitrobenzyl)-5,6,7,8-tetrahydro-[1,3]dioxolo[4,5-g]isoquinolin-5-yl)isobenzofuran-1(3H)-one] showed a melting point of 154 °C. In addition, at tubulin, binding was characterised by a dissociation constant (Kd) of 91 ± 8 µM and the “Experimental ΔGbind” value was -5.518 kcal/mol. Also, the IC50 in data set [1] amounted to 10 ± 0.8 µM. In data set [2], the midpoint of inhibition, the IC50, lay at 23.7 ± 1.5 µM. Also, the IC50 in data set [3] turned out to be 49 ± 2.5 µM. This molecule also yielded an IC50 in data set [4] of 38.2 ± 2.5 µM. In the data set on MCF-7 cells, the “Cell cycle parameters % G0/G1, 24 hours” value amounted to 20.72%; the “Cell cycle parameters % G2/M, 24 hours” value is reported as 63.49%; the “Cell cycle parameters % S, 24 hours” value is on record as 4.85%; the “Cell cycle parameters % Sub-G1, 24 hours” value is 8.08%. In addition, in the data set with MCF-7 cells, the “Cell cycle parameters % G0/G1, 72 hours” value was 15.38%; the “Cell cycle parameters % G2/M, 72 hours” value turned out to be 38.41%; the “Cell cycle parameters % S, 72 hours” value is 8.27%; the “Cell cycle parameters % Sub-G1, 72 hours” value stood at 36.73%.
`COC(=O)CN1CCc2cc3c(c(OC)c2[C@@H]1[C@H]1OC(=O)c2c1ccc(OC)c2OC)OCO3` [Compound 6i, Methyl 2-((R)-5-((S)-4,5-dimethoxy-3-oxo-1,3-dihydroisobenzofuran-1-yl)-4-methoxy-7,8-dihydro-[1,3]dioxolo[4,5-g]isoquinolin-6(5H)-yl)acetate] had a melting point of 155 °C. Also, at tubulin, the affinity, expressed as Kd, was 79 ± 8 µM and the “Experimental ΔGbind” value is given as -5.602 kcal/mol. In data set [1], this molecule displayed an IC50 of 9.5 ± 0.7 µM. The molecule further gave an IC50 in data set [2] of 22.3 ± 1.2 µM. Also, inhibition in data set [3] was half-maximal at 45.4 ± 2.5 µM (IC50). In data set [4], this molecule showed an IC50 of 36 ± 1.9 µM. Further, in the data set on MCF-7 cells, the “Cell cycle parameters % G0/G1, 24 hours” value worked out at 19.57%; the “Cell cycle parameters % G2/M, 24 hours” value is on record as 63.38%; the “Cell cycle parameters % S, 24 hours” value is 4.62%; the “Cell cycle parameters % Sub-G1, 24 hours” value worked out at 12.25%. Besides, in the data set on MCF-7 cells, the “Cell cycle parameters % G0/G1, 72 hours” value stood at 14.37%; the “Cell cycle parameters % G2/M, 72 hours” value amounted to 37.15%; the “Cell cycle parameters % S, 72 hours” value is 6.43%; the “Cell cycle parameters % Sub-G1, 72 hours” value was 40.18%.

Usually Kd stands for the equilibrium constant for the complex coming apart. Higher therefore signals a looser complex. Usually IC50 stands for the concentration needed to halve the response being measured. Read a high IC50 as weaker potency in that assay. In general, melting point refers to the temperature of the solid-liquid transition.
